Experimental data published in patent US7589096B2, “Azole derivatives” (Banyu Pharmaceutical Co., Ltd., priority 2002, dated 2009).
Where a name gives a salt, the structure may show the parent alone. Read-outs that look alike come from different tables or passages of the source.

What was measured:
human NPY Y5 receptor = molecular target: T1, human NPY Y5 receptor (Homo sapiens, UniProt Q15761); assay: NPY binding inhibition test ([125I]peptide YY binding to membranes of NPY Y5 receptor expression cells); conditions: [125I]peptideYY, membrane sample, 25° C., 2 hours; read-out: IC50 against specific peptide YY binding
T1 construct: expressed in transfected cells; host or cells: COS-7, CHO and LM(tk-)
T1 sequence (Q15761 1-445): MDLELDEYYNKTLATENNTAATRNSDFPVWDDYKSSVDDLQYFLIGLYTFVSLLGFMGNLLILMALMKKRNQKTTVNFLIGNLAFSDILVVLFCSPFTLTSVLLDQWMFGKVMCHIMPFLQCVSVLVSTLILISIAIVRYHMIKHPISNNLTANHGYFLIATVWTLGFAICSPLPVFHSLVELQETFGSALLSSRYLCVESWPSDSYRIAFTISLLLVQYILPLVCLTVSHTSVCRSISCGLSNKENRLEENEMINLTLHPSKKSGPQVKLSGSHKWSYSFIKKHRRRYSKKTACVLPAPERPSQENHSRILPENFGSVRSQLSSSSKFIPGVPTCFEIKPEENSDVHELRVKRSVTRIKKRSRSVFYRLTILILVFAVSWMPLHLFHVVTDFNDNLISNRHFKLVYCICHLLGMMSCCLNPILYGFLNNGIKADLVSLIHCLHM
From the text: cDNA sequence encoding human NPY Y5 receptor (cf. International patent publication number WO96/16542) was cloned into expression vectors pcDNA3, pRc/RSV (made by invitrogen Inc.) and pCI-neo (made by Promega Inc.). The expression vectors thus obtained were transfected to host cells COS-7, CHO and LM(tk-) (American Type Culture Collection) by cationic lipid method (Proceedings of the National Academy of Sciences of the United States of America, 84: 7413 (1987)) to give NPY Y5 receptor expression cells.
A membrane sample prepared from the cells which expressed NPY Y5 receptor was incubated together with a test compound and [^125I]peptideYY (made by NEN) (20,000 cpm) in man assay buffer (25 mM Tris buffer, pH 7.4, containing 10 mM magnesium chloride, 1 mM phenylmethylsulfonyl fluoride, 0.1% bacitracin and 0.5% bovine serum albumin) at 25° C. for 2 hours, then filtered through a glass filter GF/C and washed with 5 mM Tris buffer (pH7.4) containing 0.3% BSA. The radioactivity of the cake on the glass filter was measured. Non-specific binding was measured in the presence of 1 μM peptide YY, and a 50% Inhibitory Concentration (IC50) of the test compound against specific peptide YY binding was determined (Endocrinology; 131: 2090 (1992)).

[1] = Brain/cerebrospinal fluid transport test; assay type: in vivo; conditions: male SD rats, 2 hours after oral administration (10 mg/kg); for concentration at 2 h: rat
Procedure: A test compound was orally or intravenously administered to male SD rats (7-10 weeks old, 200-400 g), and whole blood was collected from the abdominal aorta of said rats anesthetized with ether at predetermined time, using a heparin-treated syringe. Then, the head skin was cut open, and a dental 30 G needle was inserted between the cervical vertebrae, and it was further inserted into the cavum subarachnoideale. After 50 to 100 μL cerebrospinal fluid had been collected by a 1 ml-syringe through a tube connected to said dental 30 G needle, the brain was extracted. The blood sample was centrifuged (4° C., 6,000 r.p.m., 10 minutes) to collect the plasma, to which was added 3-fold amount of ethanol containing an internal standard, and the mixture was stirred. The brain sample was homogenized after addition of 2 ml water, an aliquot of the homogenate was taken and 3-fold amount of ethanol containing an internal standard was added thereto and stirred. The cerebrospinal fluid was stirred after adding 3-fold amount of ethanol containing an internal standard. The samples thus obtained were allowed to stand at −20° C. for 20 minutes, and then centrifuged (4° C., 12,000 g, 10 minutes). The supernatant was analyzed by LC/MS/MS, and the concentration of the test compound in the plasma, brain, and cerebrospinal fluid were measured by the method using a relative calibration curve.

Row | SMILES | IC50 (human NPY Y5 receptor) [nM] | further results
1 | O=C1OC2(CCN(c3nc(-c4ccc5ccccc5c4)c[nH]3)CC2)c2ccccc21 [Example 1, 4-(2-naphthyl)-2-[3-oxospiro[isobenzofuran-1(3H),4′-piperidin]-1′-yl]-1H-imidazole hydrochloride] | 1.7 | –
2 | O=C1OC2(CCN(c3cc(-c4ccnc(-c5ccccc5)c4)[nH]n3)CC2)c2ccccc21 [Example 14, 3-[3-oxospiro[isobenzofuran-1(3H),4′-piperidin]-1′-yl]-5-(2-phenylpyridin-4-yl)-1H-pyrazole] | 1.7 | –
3 | O=C1OC2(CCN(c3cc(-c4ccnc(-c5ccccc5)n4)[nH]n3)CC2)c2ccccc21 [Example 19, 3-[3-oxospiro[isobenzofuran-1(3H),4′-piperidin]-1′-yl]-5-(2-phenylpyrimidin-4-yl)-1H-pyrazole] | 1.6 | –
4 | O=C1OC2(CCC(c3cc(-c4ccnc(-c5ccccc5)n4)[nH]n3)CC2)c2ccccc21 (stereo not drawn) [Example 23, trans-3-[3′-oxospiro[cyclohexane-1,1′(3′H)-isobenzofuran]-4-yl]-5-(2-phenylpyrimidin-4-yl)-1H-pyrazole] | 2.7 | –
5 | O=C1OC2(CCC(c3cc(-c4cncc(-c5ccccc5)n4)[nH]n3)CC2)c2ccccc21 (stereo not drawn) [Example 24, trans-3-[3′-oxospiro[cyclohexane-1,1′(3′H)-isobenzofuran]-4-yl]-5-(6-phenylpyrazin-2-yl)-1H-pyrazole] | 3.9 | –
6 | O=C1OC2(CCC(c3cc(-c4ccnc(-c5ccccc5)n4)[nH]n3)CC2)c2cnccc21 (stereo not drawn) [Example 29, trans-3-[3-oxospiro[6-azaisobenzofuran-1(3H),1′-cyclohexan]-4′-yl]-5-(2-phenylpyrimidin-4-yl)-1H-pyrazole] | 3.9 | concentration in the brain [1]: 3.01 nmol/g; concentration at 2 h ([1]; cerebrospinal fluid, read-out: concentration in the cerebrospinal fluid): 15 nM; concentration at 2 h ([1]; plasma, read-out: concentration in the plasma): 1160 nM
7 | O=C1OC2(CCN(c3nc(-c4ccc5ccccc5c4)n[nH]3)CC2)c2ccccc21 [Example 30, 3-(2-naphthyl)-5-[3-oxospiro[isobenzofuran-1-(3H),4′-piperidin]-1′-yl]-1H-1,2,4-triazole] | 4.2 | –
8 | O=C1OC2(CCC(c3nn4nc(-c5ccccc5F)cc4[nH]3)CC2)c2cnccc21 (stereo not drawn) [Example 34, trans-6-(2-fluorophenyl)-2-[3-oxospiro[6-azaisobenzofuran-1(3H),1′-cyclohexan]-4′-yl]-1H-pyrazolo[2,3-b][1,2,4]-triazole] | 3.5 | –
9 | O=C1OC2(CCC(c3nn4nc(-c5ccccc5)cc4[nH]3)CC2)c2cnccc21 (stereo not drawn) [Example 35, trans-2-[3-oxospiro[6-azaisobenzofuran-1(3H),1′-cyclohexan]-4′-yl]-6-phenyl-1H-pyrazolo[2,3-b][1,2,4]triazole] | 3.3 | –
10 | O=C1OC2(CCC(c3nn4nc(-c5ccccc5)cc4[nH]3)CC2)c2ccccc21 (stereo not drawn) [Example 36, trans-2-[3′-oxospiro[cyclohexane-1,1′(3′H)-isobenzofuran]-4-yl]-6-phenyl-1H-pyrazolo[2,3-b][1,2,4]triazole] | 1.8 | –
11 | O=C1OC2(CCN(c3cc(-c4ccnc(-c5ccccc5)n4)[nH]n3)CC2)c2cnccc21 [Example 45, 3-[3-oxospiro[6-azaisobenzofuran-1(3H),4′-piperidin]-1′-yl]-5-(2-phenylpyrimidin-4-yl)-1H-pyrazole] | 1.5 | –
12 | O=C1OC2(CCN(c3cc(-c4ccnc(-c5ccccc5F)n4)[nH]n3)CC2)c2cnccc21 [Example 46, 3-[3-oxospiro[6-azaisobenzofuran-1(3H),4′-piperidin]-1′-yl]-5-[2-(2-fluorophenyl)pyrimidin-4-yl]-1H-pyrazole] | 1.5 | –
13 | O=C1OC2(CCN(c3cc(-c4ccnc(-c5ccc(F)cc5)n4)[nH]n3)CC2)c2cnccc21 [Example 47, 3-[3-oxospiro[6-azaisobenzofuran-1(3H),4′-piperidin]-1′-yl]-5-[2-(4-fluorophenyl)pyrimidin-4-yl]-1H-pyrazole] | 2.2 | –
